Source: ChEMBL document CHEMBL5126532, “Synthetic approaches and structural diversity of triazolylbutanols derived from voriconazole in the antifungal drug development” (Eur J Med Chem, 2022)
Converted amounts (≈) assume the structure as drawn. Values belong to the compound of their own block, whether it stands above or below them.

Columns and labels:
Assay type in all cases: functional
Candida albicans [1] = assay: Antifungal activity against Candida albicans assessed as inhibition of fungal growth incubated for 20 hrs
Cryptococcus neoformans [2] = assay: Antifungal activity against Cryptococcus neoformans
Aspergillus sp. = assay: Antifungal activity against Aspergillus sp
Candida albicans [3] = assay: Antifungal activity against Candida albicans
Cryptococcus neoformans [4] = assay: Antifungal activity against Cryptococcus neoformans TIMM 1855 by 96-well microplate method
Aspergillus flavus = assay: Antifungal activity against Aspergillus flavus SANK 18497 by 96-well microplate method
Candida albicans [5] = assay: Antifungal activity against Candida albicans SANK 51486 by 96-well microplate method
Aspergillus fumigatus [6] = assay: Antifungal activity against Aspergillus fumigatus SANK 10569 by 96-well microplate method
Candida parapsilosis = assay: Antifungal activity against Candida parapsilosis; conditions: Lodderomyces parapsilosis
Aspergillus fumigatus [7] = assay: Antifungal activity against Aspergillus fumigatus
Candida = assay: Antifungal activity against Candida spp.
Candida albicans [8] = assay: In vivo antifungal activity against Candida albicans infected in CDF1 mouse treated po 4 hrs after injection twice daily for 2 days measured on day 10; conditions: 48 h, time 2 day
Aspergillus fumigatus [9] = assay: Antifungal activity against Aspergillus fumigatus TIMM1728 assessed as inhibition of fungal growth incubated for 20 hrs
Aspergillus fumigatus [10] = assay: Antifungal activity against Aspergillus fumigatus IFO6344 assessed as inhibition of fungal growth incubated for 20 hrs
Cryptococcus neoformans [11] = assay: Antifungal activity against Cryptococcus neoformans TIMM1855 assessed as inhibition of fungal growth incubated for 68 hrs
Aspergillus fumigatus [12] = assay: In vivo antifungal activity against Aspergillus fumigatus infected in CDF1 mouse treated po 4 hrs after injection twice daily for 2 days measured on day 10; conditions: 48 h, time 2 day
Cryptococcus neoformans [13] = assay: Antifungal activity against Cryptococcus neoformans TIMM1740 assessed as inhibition of fungal growth incubated for 68 hrs
Candida albicans [14] = assay: Antifungal activity against Candida albicans TIMM1756 assessed as inhibition of fungal growth incubated for 20 hrs
Candida albicans [15] = assay: Antifungal activity against Candida albicans TIMM1850 assessed as inhibition of fungal growth incubated for 20 hrs
[16] = Cryptococcus neoformans, read-out: MIC

MIC (Candida albicans [1]): 0.016 µg/mL
SMILES: CC(C)C(=O)OC[n+]1cnn(C[C@](O)(c2ccc(F)cc2F)[C@@H](C)N2CCN(c3ccc(-n4cnnn4)cc3)C2=O)c1.[I-]

MIC (Candida albicans [1]): 0.016 µg/mL
SMILES: CC(=O)NCCOC(=O)OC[n+]1cnn(C[C@](O)(c2ccc(F)cc2F)[C@@H](C)N2CCN(c3ccc(-n4cnnn4)cc3)C2=O)c1.[I-]

MIC80 (Candida albicans [3]): 0.0313 µg/mL (≈ 0.0704 µM)
SMILES: C[C@@H](OCc1cc(-c2ccccc2F)no1)[C@](O)(Cn1cncn1)c1ccc(F)cc1F

MIC80 (Candida albicans [3]): 0.0313 µg/mL (≈ 0.0677 µM)
SMILES: C[C@@H](OCc1cc(-c2cc(F)cc(F)c2)no1)[C@](O)(Cn1cncn1)c1ccc(F)cc1F

MIC (Cryptococcus neoformans [4]): ≤ 0.008 µg/mL
MIC (Aspergillus flavus): ≤ 0.008 µg/mL
MIC (Candida albicans [5]): ≤ 0.008 µg/mL
MIC (Aspergillus fumigatus [6]): ≤ 0.008 µg/mL
SMILES: C[C@@H](S[C@H]1CO[C@H](/C=C/C=C/c2ccc(C#N)cc2F)OC1)[C@](O)(Cn1cncn1)c1ccc(F)cc1

MIC80 (Candida albicans [3]): 0.0313 µg/mL (≈ 0.0677 µM)
SMILES: C[C@@H](OCc1cc(-c2cccc(F)c2F)no1)[C@](O)(Cn1cncn1)c1ccc(F)cc1F

MIC (Aspergillus fumigatus [7]): 32 µg/mL (≈ 47.7 µM)
SMILES: C[C@@H](N1CCN(c2ccc(-n3cnn(Cc4ccc(OC(F)(F)F)cc4)c3=O)cc2)CC1)[C@](O)(Cn1cncn1)c1ccc(F)cc1F

MIC (Cryptococcus neoformans [2]; [16]): 0.0312 µg/mL (≈ 0.0643 µM)
MIC (Candida): 0.0156 µg/mL (≈ 0.0321 µM)
MIC (Aspergillus sp.; Aspergillus sp., read-out: MIC): 4 µg/mL (≈ 8.24 µM)
SMILES: C[C@@H](N1Cc2nc(-c3ccc(F)cc3)sc2C1=O)[C@](O)(Cn1cncn1)c1ccc(F)cc1F

MIC80 (Candida albicans [3]): 0.0313 µg/mL (≈ 0.0677 µM)
SMILES: C[C@@H](OCc1cc(-c2c(F)cccc2F)no1)[C@](O)(Cn1cncn1)c1ccc(F)cc1F

MIC80 (Candida albicans [3]): 0.0313 µg/mL (≈ 0.0677 µM)
SMILES: C[C@@H](OCc1cc(-c2cc(F)ccc2F)no1)[C@](O)(Cn1cncn1)c1ccc(F)cc1F

MIC (Candida parapsilosis): 4 µg/mL (≈ 6.1 µM)
SMILES: C[C@@H](N1CCN(c2ccc(-n3cnn(Cc4cccc(C(F)(F)F)c4)c3=O)cn2)CC1)[C@](O)(Cn1cncn1)c1ccc(F)cc1F

MIC (Candida parapsilosis): 4 µg/mL (≈ 6.1 µM)
SMILES: C[C@@H](N1CCN(c2ccc(-n3cnn(Cc4ccc(C(F)(F)F)cc4)c3=O)nc2)CC1)[C@](O)(Cn1cncn1)c1ccc(F)cc1F

MIC (Candida parapsilosis): 4 µg/mL (≈ 5.96 µM)
SMILES: C[C@@H](N1CCN(c2ccc(-n3cnn(Cc4ccc(OC(F)(F)F)cc4)c3=O)cn2)CC1)[C@](O)(Cn1cncn1)c1ccc(F)cc1F

MIC80 (Candida albicans [3]): 0.0313 µg/mL (≈ 0.0633 µM)
SMILES: C[C@@H](OCc1cc(-c2ccc(C(F)(F)F)cc2)no1)[C@](O)(Cn1cncn1)c1ccc(F)cc1F

MIC80 (Candida albicans [3]): 0.0313 µg/mL (≈ 0.0679 µM)
SMILES: C[C@@H](OCc1cc(-c2ccccc2Cl)no1)[C@](O)(Cn1cncn1)c1ccc(F)cc1F

Continued, compound first:

SMILES: C[C@@H](N1C(=O)N(c2ccc(-n3cnnn3)cc2)CC1O)[C@](O)(Cn1cncn1)c1ccc(F)cc1F (stereo in doubt; 140b)
MIC (Cryptococcus neoformans [2]): 8 µg/mL (≈ 16.1 µM)
MIC (Aspergillus sp.): 32 µg/mL (≈ 64.3 µM)

SMILES: CC(C)CCC(=O)OC[n+]1cnn(C[C@](O)(c2ccc(F)cc2F)[C@@H](C)N2CCN(c3ccc(-n4cnnn4)cc3)C2=O)c1.[I-]
MIC (Candida albicans [1]): 0.016 µg/mL

SMILES: C[C@@H](OCc1cc(-c2c(F)c(F)c(F)c(F)c2F)no1)[C@](O)(Cn1cncn1)c1ccc(F)cc1F
MIC80 (Candida albicans [3]): 0.0313 µg/mL (≈ 0.0606 µM)

SMILES: Cc1ccc(-c2cc(CO[C@H](C)[C@](O)(Cn3cncn3)c3ccc(F)cc3F)on2)cc1
MIC80 (Candida albicans [3]): 0.0313 µg/mL (≈ 0.0711 µM)

SMILES: C[C@@H](N1CCN(c2ccc(-n3cnn(Cc4cc(C(F)(F)F)cc(C(F)(F)F)c4)c3=O)nc2)CC1)[C@](O)(Cn1cncn1)c1ccc(F)cc1F
MIC (Candida parapsilosis): 4 µg/mL (≈ 5.53 µM)

SMILES: C[C@@H](N1CCN(c2ccc(-n3cnn(Cc4cccc(C(F)(F)F)c4)c3=O)nc2)CC1)[C@](O)(Cn1cncn1)c1ccc(F)cc1F
MIC (Candida parapsilosis): 4 µg/mL (≈ 6.1 µM)

SMILES: C[C@@H](N1C(=O)N(c2ccc(-n3cnnn3)cc2)CC1O)[C@](O)(Cn1cncn1)c1ccc(F)cc1F (stereo in doubt; 140a)
MIC (Cryptococcus neoformans [2]; [16]): 8 µg/mL (≈ 16.1 µM)
MIC (Candida): ≥ 0.25 µg/mL
MIC (Aspergillus sp.; Aspergillus sp., read-out: MIC): 32 µg/mL (≈ 64.3 µM)

SMILES: CCC(=O)OC[n+]1cnn(C[C@](O)(c2ccc(F)cc2F)[C@@H](C)N2CCN(c3ccc(-n4cnnn4)cc3)C2=O)c1.[I-]
MIC (Candida albicans [1]): 0.016 µg/mL

SMILES: C[C@@H](N1CCN(c2ccc(-n3cnn(Cc4cc(C(F)(F)F)cc(C(F)(F)F)c4C(F)(F)F)c3=O)cn2)CC1)[C@](O)(Cn1cncn1)c1ccc(F)cc1F
MIC (Candida parapsilosis): 4 µg/mL (≈ 5.05 µM)

SMILES: C[C@H](n1nnc(CCN2CCN(c3cccc(C(F)(F)F)c3)CC2)n1)[C@](O)(Cn1cncn1)c1ccc(F)cc1F
MIC (Cryptococcus neoformans [2]; [16]): 0.25 µg/mL (≈ 0.433 µM)
MIC (Candida): 0.25 µg/mL (≈ 0.433 µM)

SMILES: C[C@@H](S[C@H]1CO[C@H](/C=C/C=C/c2ccc(C#N)cc2)OC1)[C@](O)(Cn1cncn1)c1ccc(F)cc1F
MIC (Cryptococcus neoformans [4]): ≤ 0.008 µg/mL
MIC (Aspergillus flavus): ≤ 0.008 µg/mL
MIC (Candida albicans [5]): ≤ 0.008 µg/mL
MIC (Aspergillus fumigatus [6]): ≤ 0.008 µg/mL

SMILES: C[C@@H](N1CCN(c2ccc(-n3cccn3)cc2)C1=O)[C@](O)(Cn1cncn1)c1ccc(F)cc1F
ED50 (Candida albicans [8]): 2 mg/kg
MIC (Aspergillus fumigatus [9]): 0.25 µg/mL (≈ 0.521 µM)
MIC (Aspergillus fumigatus [10]): 0.25 µg/mL (≈ 0.521 µM)
MIC (Cryptococcus neoformans [11]): 0.016 µg/mL (≈ 0.0334 µM)
ED50 (Aspergillus fumigatus [12]): 4.4 mg/kg
MIC (Cryptococcus neoformans [13]): 0.016 µg/mL (≈ 0.0334 µM)
MIC (Candida albicans [14]): ≤ 0.001 µg/mL
MIC (Candida albicans [15]): ≤ 0.001 µg/mL

SMILES: C[C@@H](OCc1cc(-c2ccc(Cl)cc2)no1)[C@](O)(Cn1cncn1)c1ccc(F)cc1F
MIC80 (Candida albicans [3]): 0.0313 µg/mL (≈ 0.0679 µM)

SMILES: C[C@@H](OCc1cc(-c2cc(F)c(F)c(F)c2F)no1)[C@](O)(Cn1cncn1)c1ccc(F)cc1F
MIC80 (Candida albicans [3]): 0.0313 µg/mL (≈ 0.0628 µM)
